Assay results reported in ChEMBL document CHEMBL1146726, “Linker-modified quinoline derivatives targeting HIV-1 integrase: synthesis and biological activity” (Bioorg Med Chem Lett, 2004).

How the values were obtained:
CCRF-CEM = assay: Concentration that inhibits 50% of viral particle production in de novo infection assay of CEM cells (ex vivo); Not reached; type: functional, cell-based, Homo sapiens
[1] = tested on: Human immunodeficiency virus 1; assay: Inhibition of particle production in de novo infection assay of HIV infected CEM cells.; type: functional, organism-based; conditions: Human immunodeficiency virus 1, CCRF-CEM
[2] = target: Human immunodeficiency virus type 1 integrase (Human immunodeficiency virus 1, UniProt Q7ZJM1); assay: In vitro inhibition of recombinant integrase activity in a standard 3'-processing assay.
Chain of Human immunodeficiency virus type 1 integrase (Q7ZJM1 whole entry): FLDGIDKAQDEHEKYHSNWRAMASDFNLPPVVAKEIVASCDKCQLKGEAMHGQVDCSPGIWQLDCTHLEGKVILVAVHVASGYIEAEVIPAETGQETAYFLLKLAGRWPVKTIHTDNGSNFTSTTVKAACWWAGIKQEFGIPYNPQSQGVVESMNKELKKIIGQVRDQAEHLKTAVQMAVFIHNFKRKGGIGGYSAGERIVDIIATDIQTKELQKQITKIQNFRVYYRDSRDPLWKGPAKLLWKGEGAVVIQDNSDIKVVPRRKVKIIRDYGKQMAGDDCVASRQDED

IC50 (CCRF-CEM)	IC50 [1]	IC50 [2]	Structure (SMILES)
Not reached			O=C(O)c1ccc2ccc(CCc3ccc(O)c(O)c3)nc2c1O
	> 100 µM	> 100 µM	COc1ccc(CNC(=O)Nc2ccc3ccc(C(=O)O)c(O)c3n2)cc1
	> 100 µM	3 µM	O=C(NNc1ccc([N+](=O)[O-])cc1[N+](=O)[O-])c1ccc2ccc(C(=O)O)c(O)c2n1
	1 µM		O=C(O)c1ccc2ccc(/C=C/c3ccc(O)c(O)c3)nc2c1O
	> 100 µM		O=C(O)c1ccc2ccc(/C=C/c3cc(O)cc(O)c3)nc2c1O
	> 100 µM	30 µM	O=C(/C=C(\O)c1ccccc1)c1ccc2ccc(C(=O)O)c(O)c2n1
	25 µM	6.5 µM	COc1cc(CNC(=O)c2ccc3ccc(C(=O)O)c(O)c3n2)cc(O)c1O
	2 µM	5 µM	O=C(NCc1ccc(O)c(O)c1)c1ccc2ccc(C(=O)O)c(O)c2n1
	55 µM	> 100 µM	O=C(NCc1ccc(O)c(O)c1)Nc1ccc2ccc(C(=O)O)c(O)c2n1
	45 µM	> 100 µM	O=C(NNc1ccccc1)c1ccc2ccc(C(=O)O)c(O)c2n1
	10 µM	5 µM	O=C(NCc1ccc(O)cc1O)c1ccc2ccc(C(=O)O)c(O)c2n1
	> 100 µM	> 100 µM	O=C(Nc1ccc(O)c(O)c1)Nc1ccc2ccc(C(=O)O)c(O)c2n1
	> 100 µM	> 100 µM	O=C(Nc1ccc2ccc(C(=O)O)c(O)c2n1)c1ccccc1
	40 µM	5 µM	O=C(NCc1cccc(O)c1O)c1ccc2ccc(C(=O)O)c(O)c2n1
	4 µM	1.5 µM	O=C(NCc1ccc(O)c(O)c1O)c1ccc2ccc(C(=O)O)c(O)c2n1
	> 100 µM	> 100 µM	O=C(NCc1cc(O)cc(O)c1)c1ccc2ccc(C(=O)O)c(O)c2n1
	2 µM	6.5 µM	COc1cc(NC(=O)c2ccc3ccc(C(=O)O)c(O)c3n2)cc(O)c1O

Structure (SMILES)	IC50 (CCRF-CEM)	IC50 [1]	IC50 [2]
O=C(Nc1ccc(O)c(O)c1)c1ccc2ccc(C(=O)O)c(O)c2n1		30 µM	0.9 µM
